# From publication PMC7822874, “Chemoprotective antimalarials identified through quantitative high-throughput screening of Plasmodium blood and liver stage parasites” (Scientific Reports, 2021)
# Like-named read-outs stand apart in the source and are kept apart here.
# Key:
# in vitro = conditions: human; for viability at 66 h / viability at 48 h, 1 µM / viability at 48 h, 3 µM / viability at 48 h: HepG2-A16-CD81EGFP cells, uninfected
# [1] = system: Plasmodium falciparum Dd2 asexual blood stage parasites; assay: microbe, parasite or virus in culture; parameters: species or system Plasmodium falciparum Dd2 in human erythrocytes; single determination (one 11-point concentration-response curve); conditions: Plasmodium falciparum, DD2, Erythrocyte, 72 h
# [2] = system: P. berghei-ANKA-GFP-LucCON liver stage parasites in HepG2-A16-CD81EGFP cells; assay: P. berghei liver stage Pb-Luc assay, Method 1 (UCSD, 1536-well); format: cell-based, Plasmodium berghei; conditions: for activity at 1 µM / activity at 3 µM: 48 h, average of 2 wells on a 1536 well plate; for activity at 1 µM: 1 uM (compounds provided at 10 mM); for activity at 3 µM: 3 uM (compounds provided at 10 mM)
# [3] = Plasmodium berghei, column 11, read-out: Pb-Luc (P. berghei liver stage), % of control, lower concentration, first repeat
# [4] = Plasmodium berghei, column 12, read-out: Pb-Luc (P. berghei liver stage), % of control, lower concentration, second repeat
# [5] = Plasmodium berghei, column 8, read-out: Pb-Luc (P. berghei liver stage), % of control, higher concentration, first repeat
# [6] = Plasmodium berghei, column 9, read-out: Pb-Luc (P. berghei liver stage), % of control, higher concentration, second repeat
Compound,viability at 66 h (in vitro) [%],"viability at 48 h, 1 µM (in vitro) [%]","viability at 48 h, 3 µM (in vitro) [%]",further results
Cc1ccc(CN(C)C(=O)c2cc(COc3ccc(F)cc3Cl)on2)o1 [MLS000734222-01],101,–,–,–
C=CCNc1nc(N(c2ccccc2)c2ccccc2)nc(-n2ccnc2)n1 [MLS000045718-01],107,–,–,–
Cc1n[nH]c(=S)n(/N=C/c2cccs2)c1=O [MLS000780118-01],98.7,–,–,–
CCc1cc(C(=O)c2ccccc2)c(N)s1 [MLS001211275-01],107,–,–,–
Cc1nn(-c2ccc([N+](=O)[O-])cc2)c2c1C(c1cccc(Br)c1)N1C(=N2)C(=O)Nc2ccccc21 (stereo not shown) [MLS000331784-01],–,105,102,–
Cc1ccc(NN=C2C=CC(=O)c3ncccc32)cc1 [MLS000585898-01],–,93,88,–
Clc1cccc(CN2CCc3c([nH]c4ccccc34)C2)c1Cl [MLS001164092-01],–,104,–,viability at 48 h (in vitro): 104%
COc1ccc(CCn2c(=N)c(C(=O)NC3CCCCC3)cc3c(=O)n4ccccc4nc32)cc1 [MLS001146200-01],–,102,98,–
CCOC(=O)Cn1c2c(c(=N)c3c1CCC3)CCC2 [MLS000080129-01],99.5,–,–,–
O=C(C[n+]1cc(-c2ccccc2)n2c1CCC2)c1cccs1 [MLS001003812-01],–,94,86,–
Cc1ccc2c(c1)-c1c(ssc1=S)C(C)(C)N2C(=O)c1ccco1 [MLS000525939-01],–,100,100,–
COc1ccc(C(=O)C[n+]2ccc(N(C)C)cc2)cc1 [MLS001044390-01],100,–,–,–
COc1ccc2cc3cc(C(=O)NCCC(C)C)oc3nc2c1 [MLS001199461-01],–,101,101,–
CC(C)c1ccc(O)c(CN2CCN(c3ccccc3)CC2)c1 [MLS000084718-01],–,–,–,"AC50 [1]: 1.33 µM; activity at 1 µM [2, 3]: 105%; activity at 1 µM [2, 4]: 80%; activity at 3 µM [2, 5]: 97%; activity at 3 µM [2, 6]: 96%"
COc1ccc(-c2c[n+](CC(=O)c3cccs3)c3n2CCC3)cc1 [MLS000333575-01],–,–,–,viability (in vitro): 101%
Cc1nc2c(n1C1CCCCC1)C(=O)c1ccccc1C2=O [MLS000564113-01],–,–,–,"activity at 1 µM [2, 3]: 95%; activity at 1 µM [2, 4]: 107%; activity at 3 µM [2, 5]: 85%; activity at 3 µM [2, 6]: 94%"

Compound,viability at 66 h (in vitro) [%],"viability at 48 h, 1 µM (in vitro) [%]","viability at 48 h, 3 µM (in vitro) [%]",further results
NS(=O)(=O)c1cccc(NC(=O)CSc2nn(-c3ccccc3)c(=S)s2)c1 [MLS000339501-01],–,105,100,–
Cc1cccc(NC(=O)c2cc(S(=O)(=O)N(C)c3ccc(F)cc3)ccc2Cl)n1 [MLS001160863-01],–,97,92,–
CCOC(=O)C1=C(C)NC2=C(C(=O)CCC2)C1c1cn(Cc2ccc(Cl)cc2Cl)nc1-c1ccccc1 (stereo not shown) [MLS000324811-01],–,106,96,–
Cc1ccc(-c2nc(CN3CCCCC3)cc(CN3CCCCC3)c2O)cc1 [MLS000713293-01],–,101,–,viability at 48 h (in vitro): 101%
Cc1ccc2[nH]c(C(=O)Nc3ccc(F)cc3)cc2c1 [MLS001183414-01],99.7,–,–,–
CCc1ccc2c(c1)C1(NN=C(c3ccc(C)cc3)S1)C(=O)N2 (stereo not shown) [MLS000528737-01],–,115,80,–
Cc1ccc2nc3c(c(Nc4ccc(O)cc4)c2c1)CCC3 [MLS001196969-01],–,99,99,–
COc1ccccc1NC(=O)Cn1c(C)ccc(N[S+](=O)([O-])c2ccccc2)c1=O [NCGC00430868-01],109,–,–,–
COc1cccc(OCCn2cc(C(=O)c3ccco3)c3ccccc32)c1 [MLS000050800-01],–,–,–,"activity at 1 µM [2, 3]: 134%; activity at 1 µM [2, 4]: 132%; activity at 3 µM [2, 5]: 134%; activity at 3 µM [2, 6]: 113%"
COc1ccc(C2CC(c3cccs3)=NN2C(=O)c2ccco2)cc1OC (stereo not shown) [MLS000769739-01],101,–,–,–
CCOc1ccc2nc(C)cc(Nc3cccc([N+](=O)[O-])c3)c2c1 [MLS000663974-01],102,–,–,–
Oc1c(Br)cc(Br)cc1CN1CCN(Cc2ccccc2)CC1 [MLS000530313-01],–,–,–,"AC50 ([1]; read-out: AC50): 1.06 µM; activity at 1 µM [2, 3]: 129%; activity at 1 µM [2, 4]: 112%; activity at 3 µM [2, 5]: 102%; activity at 3 µM [2, 6]: 112%"
C=C(C)CSc1nc2sc3c(c2c(=O)n1-c1ccc(OC)cc1)CCN(C)C3 [MLS001173660-01],–,106,105,–
Cc1ccccc1Nc1nnc(SCc2cc(=O)n3ccsc3n2)s1 [MLS000565690-01],–,107,101,–
O=C(Cc1c[nH]c2ncc(-c3ccc(Cl)cc3)cc12)NCc1cccnc1 [NCGC00412438-01],–,–,–,"AC50 ([1]; read-out: AC50): 1.72 µM; Max Resp (signal direction of the dose response) ([2]; Method 1, Decrease = decreasing P. berghei viability with dose, Increase = increasing signal, Inactive = no dose response): Decrease; AC50 ([2]; Method 1, Hill fit, 50% of maximum activity response, read-out: AC50): 2 µM; Log AC50 (M) ([2]; Method 1, log10 of molar AC50 from Hill fit): -5.700 M; AC50 ([2]; Plasmodium berghei, Method 1, Hill fit, 50% of maximum activity response, read-out: AC50): 1.26 µM; AC50 ([2]; Plasmodium berghei, Method 1, log10 of molar AC50 from Hill fit, read-out: Log AC50 (converted)): 1.26 µM"
CCOC(=O)c1nnn(-c2nonc2N)c1-c1ccc(C)cc1 [MLS000519435-01],–,–,–,"AC50 ([1]; read-out: AC50): 5.31 µM; activity at 1 µM [2, 3]: 122%; activity at 1 µM [2, 4]: 101%; activity at 3 µM [2, 5]: 135%; activity at 3 µM [2, 6]: 119%"
